In series [1] the target is T1, Phosphatidylinositol 4,5-bisphosphate 3-kinase catalytic subunit alpha isoform (Homo sapiens, UniProt P42336). Kind of series: Inhibition of human recombinant PI3Kalpha using PIP2 by Kinase-Glo Plus assay. A general note: Kinase-Glo reads ATP consumption through a luciferase reaction.
Target sequence in this assay (P42336 whole entry, canonical isoform): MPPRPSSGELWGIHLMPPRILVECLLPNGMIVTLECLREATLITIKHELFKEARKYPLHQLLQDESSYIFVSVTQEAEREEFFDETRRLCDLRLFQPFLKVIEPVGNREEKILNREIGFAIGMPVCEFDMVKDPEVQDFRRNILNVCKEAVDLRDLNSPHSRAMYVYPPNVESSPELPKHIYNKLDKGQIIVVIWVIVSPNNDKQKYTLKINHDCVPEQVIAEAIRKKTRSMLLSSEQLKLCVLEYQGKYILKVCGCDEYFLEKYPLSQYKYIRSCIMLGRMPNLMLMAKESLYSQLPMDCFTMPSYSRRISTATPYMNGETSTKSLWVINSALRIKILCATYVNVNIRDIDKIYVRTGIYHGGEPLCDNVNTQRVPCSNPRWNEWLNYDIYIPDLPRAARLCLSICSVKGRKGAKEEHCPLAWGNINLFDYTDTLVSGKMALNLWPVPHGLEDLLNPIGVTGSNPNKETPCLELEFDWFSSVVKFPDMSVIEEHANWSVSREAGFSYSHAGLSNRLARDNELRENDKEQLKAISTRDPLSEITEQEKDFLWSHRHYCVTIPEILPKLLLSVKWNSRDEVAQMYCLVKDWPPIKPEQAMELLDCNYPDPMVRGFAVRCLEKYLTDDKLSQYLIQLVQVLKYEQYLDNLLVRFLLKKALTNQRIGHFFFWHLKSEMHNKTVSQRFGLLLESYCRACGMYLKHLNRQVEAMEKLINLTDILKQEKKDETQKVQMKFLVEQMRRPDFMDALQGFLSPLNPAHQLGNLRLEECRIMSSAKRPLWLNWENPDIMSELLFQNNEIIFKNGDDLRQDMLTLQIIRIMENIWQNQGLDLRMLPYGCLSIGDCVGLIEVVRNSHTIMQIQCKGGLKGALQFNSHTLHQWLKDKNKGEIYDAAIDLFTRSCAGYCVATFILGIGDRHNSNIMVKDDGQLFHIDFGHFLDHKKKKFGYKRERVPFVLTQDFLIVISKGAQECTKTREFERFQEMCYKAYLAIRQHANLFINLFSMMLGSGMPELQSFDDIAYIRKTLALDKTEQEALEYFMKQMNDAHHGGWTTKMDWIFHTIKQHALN
Series [2] addresses T2, Phosphatidylinositol 4,5-bisphosphate 3-kinase catalytic subunit beta isoform (Homo sapiens, UniProt P42338). The series is described as follows: Inhibition of human recombinant PI3Kbeta using PIP2 by Kinase-Glo Plus assay.
For series [3], the target named is Phosphatidylinositol 4,5-bisphosphate 3-kinase catalytic subunit gamma isoform (Homo sapiens, UniProt P48736). The series is described as follows: Inhibition of human recombinant PI3Kgamma using PIP2 by Kinase-Glo Plus assay.
In series [4] the target is T3, Phosphatidylinositol 4,5-bisphosphate 3-kinase catalytic subunit delta isoform (Homo sapiens, UniProt O00329).
T3 sequence (O00329 whole entry): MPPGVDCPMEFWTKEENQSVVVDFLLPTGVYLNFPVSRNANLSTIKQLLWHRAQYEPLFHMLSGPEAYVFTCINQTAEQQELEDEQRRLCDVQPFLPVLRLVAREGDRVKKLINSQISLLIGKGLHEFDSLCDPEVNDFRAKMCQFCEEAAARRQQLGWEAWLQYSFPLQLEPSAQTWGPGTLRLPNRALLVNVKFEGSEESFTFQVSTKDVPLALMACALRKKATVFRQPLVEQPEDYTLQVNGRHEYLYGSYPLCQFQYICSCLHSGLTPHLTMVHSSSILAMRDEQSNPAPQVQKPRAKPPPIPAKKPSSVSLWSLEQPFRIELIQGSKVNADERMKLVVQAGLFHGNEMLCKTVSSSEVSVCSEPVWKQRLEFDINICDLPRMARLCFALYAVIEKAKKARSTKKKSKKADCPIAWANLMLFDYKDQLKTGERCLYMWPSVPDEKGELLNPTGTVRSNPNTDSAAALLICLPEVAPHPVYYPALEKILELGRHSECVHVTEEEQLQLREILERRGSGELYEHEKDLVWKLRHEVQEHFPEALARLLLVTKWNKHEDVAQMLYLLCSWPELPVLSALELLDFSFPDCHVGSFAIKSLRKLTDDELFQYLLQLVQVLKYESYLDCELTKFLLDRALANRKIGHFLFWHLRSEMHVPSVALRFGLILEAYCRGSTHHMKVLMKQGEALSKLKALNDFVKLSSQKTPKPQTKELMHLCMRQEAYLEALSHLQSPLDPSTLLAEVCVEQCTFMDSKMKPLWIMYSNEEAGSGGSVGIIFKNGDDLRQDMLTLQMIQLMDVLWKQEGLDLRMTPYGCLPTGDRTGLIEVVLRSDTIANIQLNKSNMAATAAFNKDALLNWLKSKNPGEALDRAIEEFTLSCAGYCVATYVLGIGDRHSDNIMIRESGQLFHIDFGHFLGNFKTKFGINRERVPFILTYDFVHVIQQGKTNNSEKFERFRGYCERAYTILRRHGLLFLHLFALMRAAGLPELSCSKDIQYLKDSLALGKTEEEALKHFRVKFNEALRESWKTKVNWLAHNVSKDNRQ
Kind of series: Inhibition of human recombinant PI3Kdelta using PIP2 by Kinase-Glo Plus assay.

For series [5], the target named is T1, Phosphatidylinositol 4,5-bisphosphate 3-kinase catalytic subunit alpha isoform. Kind of series: Inhibition of PI3Kalpha mutant human BT474 cells assessed as inhibition of Akt phosphorylation at […] after 2 hrs. The settings on record: bt-474. Type of series: cell-based.
Target sequence in this assay (P42336 whole entry, looked up, canonical isoform): as the sequence (P42336 whole entry, canonical isoform) above
In series [6] the target is T2, Phosphatidylinositol 4,5-bisphosphate 3-kinase catalytic subunit beta isoform. Kind of series: Inhibition of PI3Kbeta in PTEN-null human MDA-MB-468 cells assessed as inhibition of Akt phosphorylation after 2 hrs. Type of series: cell-based.
Series [7] is described as follows: Lipophilicity, log D of the compound at pH 7.4 by shake-flask method. Format: physicochemical. Particulars: buffer.
A short description of series [8]: Intrinsic clearance in cryopreserved human hepatocytes measured per 10^6 cells. Particulars: read-out: CLH. Format: ADME, cell-based, Hepatocyte.
Series [9] is described as follows: Apparent permeability from apical to basolateral side of human Caco2 cells. Type of series: ADME, cell-based. Particulars: Caco-2, read-out: permeability.

Where only a bound is given, the exact number is not on record here.

T2 sequence (P42338 whole entry, canonical isoform): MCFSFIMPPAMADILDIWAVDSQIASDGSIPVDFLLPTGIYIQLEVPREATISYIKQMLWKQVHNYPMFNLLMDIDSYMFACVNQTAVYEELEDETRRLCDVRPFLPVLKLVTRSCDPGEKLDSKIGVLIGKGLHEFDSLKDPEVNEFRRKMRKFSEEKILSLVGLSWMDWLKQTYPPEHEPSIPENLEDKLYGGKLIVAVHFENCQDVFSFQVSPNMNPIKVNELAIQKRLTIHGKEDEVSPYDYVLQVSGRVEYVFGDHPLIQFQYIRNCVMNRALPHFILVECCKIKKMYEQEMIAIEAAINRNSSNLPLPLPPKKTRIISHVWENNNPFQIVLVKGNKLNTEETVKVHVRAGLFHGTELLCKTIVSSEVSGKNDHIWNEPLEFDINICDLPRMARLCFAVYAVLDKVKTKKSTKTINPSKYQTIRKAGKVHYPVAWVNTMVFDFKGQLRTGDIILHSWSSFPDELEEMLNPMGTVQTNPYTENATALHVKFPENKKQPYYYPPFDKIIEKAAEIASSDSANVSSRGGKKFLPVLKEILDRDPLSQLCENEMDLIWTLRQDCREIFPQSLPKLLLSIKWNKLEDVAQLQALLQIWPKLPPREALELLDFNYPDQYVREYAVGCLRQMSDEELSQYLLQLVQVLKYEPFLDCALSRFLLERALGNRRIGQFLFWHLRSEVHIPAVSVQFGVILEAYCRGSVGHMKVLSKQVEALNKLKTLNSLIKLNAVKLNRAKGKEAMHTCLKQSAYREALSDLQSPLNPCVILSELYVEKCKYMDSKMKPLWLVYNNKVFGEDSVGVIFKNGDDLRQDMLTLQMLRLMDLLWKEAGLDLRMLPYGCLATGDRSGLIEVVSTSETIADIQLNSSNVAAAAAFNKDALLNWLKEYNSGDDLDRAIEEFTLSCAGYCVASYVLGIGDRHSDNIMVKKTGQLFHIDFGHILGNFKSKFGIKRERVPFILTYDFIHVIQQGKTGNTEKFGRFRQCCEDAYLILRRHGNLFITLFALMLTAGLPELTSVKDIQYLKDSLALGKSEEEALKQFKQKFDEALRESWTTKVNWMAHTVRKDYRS
Sequence of Phosphatidylinositol 4,5-bisphosphate 3-kinase catalytic subunit gamma isoform (P48736 whole entry, canonical isoform): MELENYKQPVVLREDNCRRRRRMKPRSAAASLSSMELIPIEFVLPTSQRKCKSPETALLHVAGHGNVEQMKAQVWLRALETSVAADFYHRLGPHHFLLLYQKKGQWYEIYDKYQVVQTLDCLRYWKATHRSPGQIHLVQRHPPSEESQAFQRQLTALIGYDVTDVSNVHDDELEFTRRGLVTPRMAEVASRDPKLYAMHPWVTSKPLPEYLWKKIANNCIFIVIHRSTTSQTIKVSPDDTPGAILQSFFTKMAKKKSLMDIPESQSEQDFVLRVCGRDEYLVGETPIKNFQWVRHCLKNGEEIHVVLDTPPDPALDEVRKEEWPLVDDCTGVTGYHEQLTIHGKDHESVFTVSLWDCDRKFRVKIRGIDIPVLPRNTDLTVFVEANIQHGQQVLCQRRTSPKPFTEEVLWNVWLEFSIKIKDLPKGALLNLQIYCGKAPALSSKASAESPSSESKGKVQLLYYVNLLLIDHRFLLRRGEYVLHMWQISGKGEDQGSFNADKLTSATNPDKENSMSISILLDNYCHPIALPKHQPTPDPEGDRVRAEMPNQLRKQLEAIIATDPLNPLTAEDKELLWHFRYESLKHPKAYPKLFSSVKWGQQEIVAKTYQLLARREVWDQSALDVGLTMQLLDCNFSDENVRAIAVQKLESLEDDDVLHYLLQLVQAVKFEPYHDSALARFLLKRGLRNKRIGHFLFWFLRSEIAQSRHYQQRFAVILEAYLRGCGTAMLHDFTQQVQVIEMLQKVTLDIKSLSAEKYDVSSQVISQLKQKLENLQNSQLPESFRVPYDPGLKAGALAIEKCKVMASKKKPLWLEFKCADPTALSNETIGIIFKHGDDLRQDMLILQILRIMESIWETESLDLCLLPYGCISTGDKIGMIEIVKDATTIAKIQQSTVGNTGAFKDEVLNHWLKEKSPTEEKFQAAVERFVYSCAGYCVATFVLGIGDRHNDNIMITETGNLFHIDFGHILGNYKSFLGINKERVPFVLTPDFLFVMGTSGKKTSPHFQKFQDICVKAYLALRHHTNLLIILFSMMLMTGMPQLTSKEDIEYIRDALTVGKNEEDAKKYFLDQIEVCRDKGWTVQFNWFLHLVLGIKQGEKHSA

By IC50 is commonly meant the concentration at which inhibition is half-maximal. One may read the logD as lipophilicity at a set pH, counting ionised and neutral species. Read a low logD as a more hydrophilic compound. Consider `CCN(CC)C(=O)c1cc(C(C)Nc2cc(F)cc(F)c2)c2oc(N3CCOCC3)cc(=O)c2c1` (racemic), for which the IC50 in series [1] worked out at 150 nM; in series [2] it was 10 nM; in [3], 1200 nM; in [4] it was 71 nM; in [5], 3200 nM; in [6], 16 nM. Further, the logD in [7] worked out at 3.2. In addition, the hepatocyte CLint in [8] was determined as 17 µL/min/1e6 cells.
With `Cc1cc(F)cc(NC(C)c2cc(C(=O)N(C)C)cc3c(=O)cc(N4CCOCC4)oc23)c1` (racemic), the IC50 in series [1] came to 130 nM; in [2] it was 15 nM; in series [3], 2200 nM; in series [4], 110 nM; in series [5], 2900 nM; in series [6] it was 49 nM. The logD in series [7] stood at 2.2. Further, the hepatocyte CLint in series [8] worked out at 6 µL/min/1e6 cells.
With `C[C@@H](Oc1cc(F)cc(F)c1)c1cc(C(=O)N(C)C)cc2c(=O)cc(N3CCOCC3)oc12`, the IC50 in series [1] came to 970 nM; in series [2] it was 17 nM; in series [3] it was 13000 nM; in [4], 160 nM; in series [5], 7400 nM; in series [6], 132 nM. In addition, in [7], the logD came to 2.2. The hepatocyte CLint in [8] is 7 µL/min/1e6 cells. In series [9], the Papp A→B was determined as 31 ×10⁻⁶ cm/s.
As to `CC(Nc1ccc(F)cc1)c1cc(C(=O)N(C)C)cc2c(=O)cc(N3CCOCC3)oc12` (racemic), the IC50 came to 810 nM in series [1]; 18 nM in series [2]; 13000 nM in series [3]; 110 nM in series [4]; 12400 nM in series [5]; 128 nM in series [6]. The compound further came in with a logD in series [7] of 1.5. For the same compound, the hepatocyte CLint in [8] is under 3 µL/min/1e6 cells.
Consider `CC(c1cc(C(=O)N2CCCC2)cc2c(=O)cc(N3CCOCC3)oc12)N(C)c1cc(F)cc(F)c1` (racemic), for which the IC50 worked out at 510 nM in series [1]; 13 nM in series [2]; 3500 nM in series [3]; 120 nM in series [4]; 5900 nM in series [5]; 100 nM in [6]. Further, in series [7], the logD is 3.1. For the same compound, the hepatocyte CLint in [8] is 12 µL/min/1e6 cells.
On to `C[C@@H](Nc1cc(F)c(F)c(F)c1)c1cc(C(=O)N(C)C)cc2c(=O)cc(N3CCOCC3)oc12`, for which the IC50 in series [1] came to 110 nM; in [3], 1400 nM; in [4] it was 23 nM; in series [5], 1500 nM. For the same compound, the hepatocyte CLint in series [8] is under 4 µL/min/1e6 cells.
Take `COCCN(C)C(=O)c1cc(C(C)Nc2cc(F)cc(F)c2)c2oc(N3CCOCC3)cc(=O)c2c1` (racemic): the IC50 in series [1] came out at 290 nM; in series [2], 11 nM; in series [3], 2600 nM; in [4], 160 nM; in series [5] it was 2600 nM. In addition, in series [7], the logD was 2.2. Moreover, the hepatocyte CLint in series [8] was determined as 6 µL/min/1e6 cells.
`CN(C)C(=O)c1cc(CN(C)c2cc(F)cc(F)c2)c2oc(N3CCOCC3)cc(=O)c2c1` showed a logD in series [7] of 2.6. Further, in series [8], the hepatocyte CLint was under 5 µL/min/1e6 cells. For the same compound, the Papp A→B in series [9] was 36 ×10⁻⁶ cm/s.
In the case of `CCNC(=O)c1cc(C(C)Nc2cc(F)cc(F)c2)c2oc(N3CCOCC3)cc(=O)c2c1` (racemic), the IC50 in series [1] is 59 nM; in series [2], 9 nM; in series [3], 710 nM; in series [4], 44 nM; in series [5], 2900 nM; in series [6], 14 nM. The same compound gave a logD in series [7] of 3.1. In addition, in series [8], the hepatocyte CLint is under 4 µL/min/1e6 cells.
As for `CC(Nc1ccc(F)c(Cl)c1)c1cc(C(=O)N(C)C)cc2c(=O)cc(N3CCOCC3)oc12` (racemic), the IC50 was found to be 170 nM in series [1]; 12 nM in series [2]; 1800 nM in series [3]; 64 nM in series [4]; 5500 nM in series [5]; 16 nM in series [6]. Besides, the logD in series [7] was determined as 2.4. The hepatocyte CLint in series [8] came out at 8 µL/min/1e6 cells.
On to `CCN(C)C(=O)c1cc(C(C)Nc2cc(F)cc(F)c2)c2oc(N3CCOCC3)cc(=O)c2c1` (racemic), for which the IC50 in [1] worked out at 110 nM; in [2] it was 8 nM; in series [3], 930 nM; in series [4], 59 nM; in series [5], 2100 nM; in series [6] it was 7 nM. Besides, the logD in [7] came out at 2.5. Also, in [8], the hepatocyte CLint came out at 5 µL/min/1e6 cells.
`CC(Nc1cc(Cl)cc(Cl)c1)c1cc(C(=O)N(C)C)cc2c(=O)cc(N3CCOCC3)oc12` (racemic): the IC50 in series [1] is 110 nM; in [2] it was 10 nM; in series [3], 630 nM; in [4] it was 52 nM; in [5], 1900 nM; in [6] it was 17 nM. This compound also yielded a logD in series [7] of 3.2. Besides, the hepatocyte CLint in series [8] turned out to be 18 µL/min/1e6 cells.
`C[C@@H](Nc1cc(F)cc(F)c1)c1cc(C(=O)N2CCC2)cc2c(=O)cc(N3CCOCC3)oc12`: the IC50 in series [1] worked out at 29 nM; in series [3] it was 350 nM; in series [4] it was 20 nM; in series [5] it was 280 nM. In [7], the logD worked out at 2.6. In addition, in series [8], the hepatocyte CLint is under 3 µL/min/1e6 cells. In addition, in series [9], the Papp A→B came to 9.2 ×10⁻⁶ cm/s.
Consider `CC(Nc1cc(F)cc(F)c1)c1cc(C(=O)N2CCCCC2)cc2c(=O)cc(N3CCOCC3)oc12` (racemic), for which the IC50 in series [1] came out at 200 nM; in [2], 12 nM; in series [3], 1000 nM; in series [4], 59 nM; in [5], 3100 nM; in series [6], 14 nM. Also, in series [7], the logD stood at 3.1. The hepatocyte CLint in series [8] came to 21 µL/min/1e6 cells.
`C[C@H](Nc1cc(F)cc(F)c1)c1cc(C(=O)N(C)C)cc2c(=O)cc(N3CCO[C@@H](C)C3)oc12`: the IC50 was found to be 130 nM in series [1]; 9 nM in series [2]; 2900 nM in series [3]; 79 nM in [4]; 2600 nM in series [5]; 12 nM in series [6]. In series [7], this compound gave a logD of 2.6. The hepatocyte CLint in series [8] is under 3 µL/min/1e6 cells.
As for `CC(Nc1cccc(F)c1)c1cc(C(=O)N(C)C)cc2c(=O)cc(N3CCOCC3)oc12` (racemic), the IC50 in series [1] was 220 nM; in series [2], 12 nM; in [3], 2600 nM; in series [4], 73 nM; in series [5], 2400 nM; in series [6], 32 nM. Further, the logD in series [7] stood at 1.9. In addition, the hepatocyte CLint in series [8] was under 3 µL/min/1e6 cells.
Consider `COc1cc(F)cc(NC(C)c2cc(C(=O)N(C)C)cc3c(=O)cc(N4CCOCC4)oc23)c1` (racemic), for which the IC50 in series [1] came to 160 nM; in series [2] it was 10 nM; in series [3] it was 1600 nM; in series [4], 61 nM; in [5], 1700 nM; in series [6] it was 15 nM. Besides, in series [7], the pH-dependent lipophilicity (logD) was found to be 1.9. For the same compound, in [8], the hepatocyte CLint is under 3 µL/min/1e6 cells.
Regarding `CC(Nc1cccc(Cl)c1)c1cc(C(=O)N(C)C)cc2c(=O)cc(N3CCOCC3)oc12` (racemic), the IC50 in series [1] was 85 nM; in series [2] it was 10 nM; in [3], 700 nM; in [4] it was 73 nM; in series [5], 790 nM; in series [6], 9 nM. Besides, the pH-dependent lipophilicity (logD) in [7] came to 2.5. Further, the hepatocyte CLint in series [8] is under 4 µL/min/1e6 cells.

These data come from ChEMBL document CHEMBL3407416, “Discovery of (R)-8-(1-(3,5-difluorophenylamino)ethyl)-N,N-dimethyl-2-morpholino-4-oxo-4H-chromene-6-carboxamide (AZD8186): a potent and selective inhibitor of PI3Kβ and PI3Kδ for the treatment of PTEN-deficient cancers” (J Med Chem, 2015).
